PubChem BioAssay (NCI)
“And” between values parts separate entries of the source, which are not always exact repeats. Identical values can stand only once.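 48-hour exposure; five concentrations; linearly interpolated endpoints. GI50 = concentration required for 50% inhibition of growth. The concentration for full growth arrest is given as TGI.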

Key:
Test in all cases: NCI tumour cell line growth inhibition, 48 h
ACHN renal = system: ACHN renal
COLO 205 colon = system: COLO 205 colon
HL-60(TB) leukemia = system: HL-60(TB) leukemia
HS 578T breast = system: HS 578T breast
MCF7 breast = system: MCF7 breast
MOLT-4 leukemia = system: MOLT-4 leukemia
NCI-H522 lung = system: NCI-H522 lung
PC-3 prostate = system: PC-3 prostate
SK-OV-3 ovarian = system: SK-OV-3 ovarian
SNB-19 CNS = system: SNB-19 CNS

| SMILES | TGI (ACHN renal) | TGI (COLO 205 colon) | TGI (HL-60(TB) leukemia) | TGI (HS 578T breast) | TGI (MCF7 breast) | TGI (MOLT-4 leukemia) | TGI (NCI-H522 lung) | TGI (PC-3 prostate) | TGI (SK-OV-3 ovarian) | TGI (SNB-19 CNS) | GI50 (COLO 205 colon) | GI50 (HL-60(TB) leukemia) | GI50 (MCF7 breast) | GI50 (MOLT-4 leukemia) | GI50 (NCI-H522 lung) | GI50 (SK-OV-3 ovarian) | GI50 (SNB-19 CNS) |
| --- | --- | --- | --- | --- | --- | --- | --- | --- | --- | --- | --- | --- | --- | --- | --- | --- | --- |
| COc1ccc(C2c3cc4c(cc3OC(NNS(=O)(=O)c3ccc(C)cc3)C2C)OCO4)cc1 (configuration not stated) | > 100 µM | > 100 µM | 84.7 µM | > 100 µM | > 100 µM | > 100 µM | > 100 µM | > 100 µM | > 100 µM | > 100 µM |  |  |  |  |  |  |  |
| Oc1ccc(-c2nc(-c3cccnc3)c(-c3ccc(F)cc3)[nH]2)cc1 | 58.5 µM | 36.8 µM | 52 µM | 46.4 µM | 32.7 µM | 33.2 µM |  | 35.2 µM | 57.1 µM | 60.8 µM |  |  |  |  |  |  |  |
| CC1=CC2C(O1)C1C(=O)C=CC(=O)C1=CC2[N+](=O)[O-] (configuration not stated) | 12.8 µM | 21.2 µM | > 22.5 µM | > 58 µM | 14.3 µM | > 24.3 µM |  | 37.9 µM | > 100 µM | > 72.4 µM |  |  |  |  |  |  |  |
| Cc1ccc(SCC(CSCCO)OCn2cnc3c2NC(N)=NC32OCCO2)cc1 (configuration not stated) | > 100 µM |  | > 100 µM | > 100 µM | > 100 µM | > 100 µM | > 100 µM | > 100 µM | > 100 µM | > 100 µM |  |  |  |  |  |  |  |
| Cc1c2cnccc2c(C)c2c1c1ccccc1n2CCCN | 0.893 µM | 0.986 µM and 0.629 µM | 1.52 µM and 1.81 µM | 2.37 µM | 1.19 µM and 0.277 µM | 0.472 µM and 0.217 µM | 1.28 µM and 0.281 µM | 0.644 µM | 1.71 µM and 1.25 µM | 2.19 µM and 0.781 µM | 0.18 µM | 0.527 µM and 0.414 µM | 0.0474 µM | < 0.0178 µM | 0.108 µM | 0.278 µM | 0.0945 µM |
| O=c1[nH]cc(N=Cc2cc(Cl)cc(Cl)c2O)c(=O)[nH]1 | 76.1 µM | 57.7 µM | 46.9 µM | 67.1 µM | > 100 µM | 69.7 µM | 65.3 µM | 98.3 µM | 53.9 µM | > 100 µM |  |  |  |  |  |  |  |
| COc1ccc(C(OCC2OC(n3cc(C)c(=O)[nH]c3=O)CC2n2cc(Cn3cc(I)c(=O)[nH]c3=O)nn2)(c2ccccc2)c2ccccc2)cc1 (configuration not stated) | > 100 µM | > 100 µM | 5.55 µM | > 100 µM | > 100 µM | > 100 µM | > 100 µM | > 100 µM | > 100 µM | > 100 µM |  |  |  |  |  |  |  |
| Cc1nc(C(N)=S)sc1/C(CC(=O)C(=O)Nc1cccc2ccc(O)cc12)=N\NC(=O)c1ccncc1 | > 100 µM | > 100 µM | > 100 µM | > 100 µM | > 100 µM | 74.3 µM | > 100 µM | > 100 µM | > 100 µM | > 100 µM |  |  |  |  |  |  |  |
| COc1cc2c(cc1OC)C(c1ccccc1CCCCl)=NCC2 | > 100 µM | > 100 µM | > 100 µM | > 100 µM | > 100 µM | > 100 µM | > 100 µM | > 100 µM | > 100 µM | > 100 µM |  |  |  |  |  |  |  |
| C[C@@]12C[C@@H](c3ccccc3O1)N1CCCCSC1=N2 | > 100 µM | > 100 µM | > 100 µM | > 100 µM | > 100 µM | > 100 µM | > 100 µM | > 100 µM | > 100 µM | > 100 µM |  |  |  |  |  |  |  |
| O=C(CCC(=O)c1ccc(Cl)cc1)NO | > 100 µM | > 100 µM | > 100 µM | > 100 µM | > 100 µM | > 100 µM | > 100 µM | > 100 µM | > 100 µM | > 100 µM |  |  |  |  |  |  |  |
| CC(C)C1/C(=N/O)CC(c2ccccc2)N(N=O)C1c1ccccc1 (configuration not stated) | > 100 µM | 31 µM | 86.7 µM | > 100 µM | > 100 µM | 95.6 µM | > 100 µM | > 100 µM | > 100 µM | > 100 µM |  |  |  |  |  |  |  |
| CC[C@@]1(O)C(=O)OCc2c1cc1n(c2=O)Cc2c-1nc1ccccc1c2/C=N\NC(=O)CN |  | > 100 µM | > 100 µM | > 100 µM | > 64 µM | 0.368 µM | 35.5 µM | > 100 µM |  |  |  |  |  |  |  |  |  |
| O=[N+]([O-])/C(C(Cl)=C(Cl)Cl)=C(\SCc1ccccc1)N1CCCCC1 | 37.6 µM | 34.8 µM | 29.6 µM | > 100 µM | 32.2 µM | 41.1 µM | 39 µM | 74.8 µM | > 100 µM | > 100 µM |  |  |  |  |  |  |  |
| Clc1cc(OC2C3CC4CC(C3)CC2C4)nc(Cl)n1 (configuration not stated) | 32.8 µM | 34.2 µM | 12.9 µM | 42.9 µM | 35.2 µM | 34.8 µM | 27.1 µM | 37.9 µM | > 100 µM | > 100 µM |  |  |  |  |  |  |  |
| N#CC1=C(N)N(c2ccccc2)C(c2ccco2)C1(C#N)C#N (configuration not stated) | 32 µM | 39.2 µM | 53.4 µM | > 100 µM | 43.9 µM | 71 µM | 35.2 µM | 60.5 µM | > 100 µM | 71.4 µM |  |  |  |  |  |  |  |
| O=C1C(=Cc2ccc(O)cc2)N=C(c2ccccc2)N1n1c(-c2ccccc2)nc2ccccc2c1=O |  | > 100 µM | > 100 µM | > 100 µM | > 100 µM | > 100 µM | > 100 µM | > 100 µM | > 100 µM | > 100 µM |  |  |  |  |  |  |  |
| Oc1cccc2c(Cl)ccnc12 | > 47.7 µM | 32.6 µM | 3.36 µM | > 73.9 µM | > 100 µM | 4.19 µM | 2.44 µM | > 100 µM | 96.9 µM | > 100 µM |  |  |  |  |  |  |  |
| c1ccc(N=C2SC3=Nc4cccc5cccc(c45)N3C2=Nc2ccccc2)cc1 |  | > 100 µM | > 100 µM | > 100 µM | > 100 µM | > 100 µM | > 100 µM | > 100 µM | > 100 µM | > 100 µM |  |  |  |  |  |  |  |
| O=[N+]([O-])C(=C1NCCN1)/C(Cl)=C(\Cl)Br | > 100 µM | 42.6 µM | 28.2 µM | > 100 µM | > 78.7 µM | 65.7 µM | 44.6 µM | > 100 µM | > 100 µM | > 100 µM |  |  |  |  |  |  |  |
| COC(=O)[C@H]1CO[C@@H](C(C)(C)C)N1C(=O)N1C=CC(=O)C[C@@H]1C | > 100 µM | > 100 µM | > 100 µM | > 100 µM | > 100 µM |  | > 100 µM | > 100 µM | > 100 µM |  |  |  |  |  |  |  |  |
